Here are results for one molecule from patent EP0303437A2, “Platinum triamine compounds containing nucleotides or nucleosides as antitumor agents” (ENGELHARD CORPORATION, priority 1987, dated 1989).

The test system of one test is L1210 Leukemia. Put plainly: L1210 Leukemia antitumor screening. Format: in vivo, Female CDF₁ mice. The settings on record: Dose 10 mg/kg ip in water on day one; ILS ≧ 25% represents activity. On the procedure:
(§1) Each of the compounds was evaluated in the Sarcoma 180 Ascites screen and at least some of the compounds were also evaluated in the L1210 Leukemia tumor models.
(§2) L1210 screening was conducted according to a published method. […] Female CDF₁ mice (16 - 22 g) were implanted with 1 x 10⁶ tumor cells ip on day zero. Compounds were administered in 0.5 mL water ip on day one. Groups of 6 mice were used for each dose. A control group of mice received only tumor and 0.5 mL water. A positive control group received tumor and 8 mg/kg cisplatin in 0.5 mL 0.15 M NaCl. The test was terminated after three times the mean survival time (MST) of the control group, surviving mice were counted as dying on that day. Activity was determined based on the percent increase in MST of test mice over controls (%ILS). […] The tumor line was maintained through weekly transfer of 5 x 10⁴ cells in DBA/2 mice.
Turning to `N.N.Nc1ccn(C2OC(CO)C(O)C2O)c(=O)n1.O=[N+]([O-])[O-].[Cl-].[Pt+2]` [cis-[Pt(NH₃)₂(1-β-D-arabinofuranosylcytosine)Cl]NO₃], the “%ILS” value is -22%.

Staying with this test, now noted: Dose 10 mg/kg ip; survivors per group of 6 mice at three times the MST of controls.
For the molecule `N.N.Nc1ccn(C2OC(CO)C(O)C2O)c(=O)n1.O=[N+]([O-])[O-].[Cl-].[Pt+2]` [cis-[Pt(NH₃)₂(1-β-D-arabinofuranosylcytosine)Cl]NO₃], the Surv is reported as 0/6.

The same test, now with this note: Dose 20 mg/kg ip in water on day one; ILS ≧ 25% represents activity.
With `N.N.Nc1ccn(C2OC(CO)C(O)C2O)c(=O)n1.O=[N+]([O-])[O-].[Cl-].[Pt+2]` [cis-[Pt(NH₃)₂(1-β-D-arabinofuranosylcytosine)Cl]NO₃], the “%ILS” value is on record as -8%.

The test is the same for the next values; noted with them: Dose 20 mg/kg ip; survivors per group of 6 mice at three times the MST of controls.
With `N.N.Nc1ccn(C2OC(CO)C(O)C2O)c(=O)n1.O=[N+]([O-])[O-].[Cl-].[Pt+2]` [cis-[Pt(NH₃)₂(1-β-D-arabinofuranosylcytosine)Cl]NO₃], the Surv is 0/6.

The test is the same for the next values; noted with them: Dose 40 mg/kg ip in water on day one; ILS ≧ 25% represents activity.
For the molecule `N.N.Nc1ccn(C2OC(CO)C(O)C2O)c(=O)n1.O=[N+]([O-])[O-].[Cl-].[Pt+2]` [cis-[Pt(NH₃)₂(1-β-D-arabinofuranosylcytosine)Cl]NO₃], the “%ILS” value is recorded as 0%.

The same test, now with this note: Dose 40 mg/kg ip; survivors per group of 6 mice at three times the MST of controls.
Regarding `N.N.Nc1ccn(C2OC(CO)C(O)C2O)c(=O)n1.O=[N+]([O-])[O-].[Cl-].[Pt+2]` [cis-[Pt(NH₃)₂(1-β-D-arabinofuranosylcytosine)Cl]NO₃], the Surv is listed as 0/6.

The same test, now with this note: Dose 80 mg/kg ip in water on day one; ILS ≧ 25% represents activity.
As to `N.N.Nc1ccn(C2OC(CO)C(O)C2O)c(=O)n1.O=[N+]([O-])[O-].[Cl-].[Pt+2]` [cis-[Pt(NH₃)₂(1-β-D-arabinofuranosylcytosine)Cl]NO₃], the “%ILS” value is given as 6%.

Staying with this test, now noted: Dose 80 mg/kg ip; survivors per group of 6 mice at three times the MST of controls.
`N.N.Nc1ccn(C2OC(CO)C(O)C2O)c(=O)n1.O=[N+]([O-])[O-].[Cl-].[Pt+2]` [cis-[Pt(NH₃)₂(1-β-D-arabinofuranosylcytosine)Cl]NO₃]: the Surv is 0/6.

Staying with this test, now noted: Dose 160 mg/kg ip in water on day one; ILS ≧ 25% represents activity.
Turning to `N.N.Nc1ccn(C2OC(CO)C(O)C2O)c(=O)n1.O=[N+]([O-])[O-].[Cl-].[Pt+2]` [cis-[Pt(NH₃)₂(1-β-D-arabinofuranosylcytosine)Cl]NO₃], the “%ILS” value is listed as 10%.

Staying with this test, now noted: Dose 160 mg/kg ip; survivors per group of 6 mice at three times the MST of controls.
For `N.N.Nc1ccn(C2OC(CO)C(O)C2O)c(=O)n1.O=[N+]([O-])[O-].[Cl-].[Pt+2]` [cis-[Pt(NH₃)₂(1-β-D-arabinofuranosylcytosine)Cl]NO₃], the Surv is 0/6.

Staying with this test, now noted: Dose 320 mg/kg ip in water on day one; ILS ≧ 25% represents activity.
Turning to `N.N.Nc1ccn(C2OC(CO)C(O)C2O)c(=O)n1.O=[N+]([O-])[O-].[Cl-].[Pt+2]` [cis-[Pt(NH₃)₂(1-β-D-arabinofuranosylcytosine)Cl]NO₃], the “%ILS” value was 10%.

The same test, now with this note: Dose 320 mg/kg ip; survivors per group of 6 mice at three times the MST of controls.
Take `N.N.Nc1ccn(C2OC(CO)C(O)C2O)c(=O)n1.O=[N+]([O-])[O-].[Cl-].[Pt+2]` [cis-[Pt(NH₃)₂(1-β-D-arabinofuranosylcytosine)Cl]NO₃]: the Surv is recorded as 0/6.

The next test relates to Sarcoma 180 Ascites. Put plainly: Sarcoma 180 Ascites (S180a) antitumor screening. The format is in vivo, Female CFW mice. As to conditions: Dose 10 mg/kg ip in water on day one; ILS ≧ 50% indicates activity. Here is the method: as §1, §2
Female CFW mice (18 - 25 g) were implanted with 2 x 10⁶ cells ip on day zero. Compounds were administered in 0.5 mL water ip on day one. Groups of 6 mice were used for each test dose as well as controls as defined above. The test was run for twice the MST of the control group, with survivors counted as dying on that day. An ILS of ≧ 50% indicates activity. The tumor line was maintained through weekly transfer of 4 x 10⁶ cells in CFW mice.
As to `N.N.Nc1ccn(C2OC(CO)C(O)C2O)c(=O)n1.O=[N+]([O-])[O-].[Cl-].[Pt+2]` [cis-[Pt(NH₃)₂(1-β-D-arabinofuranosylcytosine)Cl]NO₃], the “%ILS” value was -12%.

Still in this test, the particulars now being: Dose 10 mg/kg ip; survivors per group of 6 mice at twice the MST of controls.
As for `N.N.Nc1ccn(C2OC(CO)C(O)C2O)c(=O)n1.O=[N+]([O-])[O-].[Cl-].[Pt+2]` [cis-[Pt(NH₃)₂(1-β-D-arabinofuranosylcytosine)Cl]NO₃], the Surv is listed as 0/6.

The same test, now with this note: Dose 20 mg/kg ip in water on day one; ILS ≧ 50% indicates activity.
Regarding `N.N.Nc1ccn(C2OC(CO)C(O)C2O)c(=O)n1.O=[N+]([O-])[O-].[Cl-].[Pt+2]` [cis-[Pt(NH₃)₂(1-β-D-arabinofuranosylcytosine)Cl]NO₃], the “%ILS” value is reported as -3%.

Staying with this test, now noted: Dose 20 mg/kg ip; survivors per group of 6 mice at twice the MST of controls.
Regarding `N.N.Nc1ccn(C2OC(CO)C(O)C2O)c(=O)n1.O=[N+]([O-])[O-].[Cl-].[Pt+2]` [cis-[Pt(NH₃)₂(1-β-D-arabinofuranosylcytosine)Cl]NO₃], the Surv is listed as 0/6.

Still in this test, the particulars now being: Dose 40 mg/kg ip in water on day one; ILS ≧ 50% indicates activity.
Regarding `N.N.Nc1ccn(C2OC(CO)C(O)C2O)c(=O)n1.O=[N+]([O-])[O-].[Cl-].[Pt+2]` [cis-[Pt(NH₃)₂(1-β-D-arabinofuranosylcytosine)Cl]NO₃], the “%ILS” value was 2%.

The test is the same for the next values; noted with them: Dose 40 mg/kg ip; survivors per group of 6 mice at twice the MST of controls.
`N.N.Nc1ccn(C2OC(CO)C(O)C2O)c(=O)n1.O=[N+]([O-])[O-].[Cl-].[Pt+2]` [cis-[Pt(NH₃)₂(1-β-D-arabinofuranosylcytosine)Cl]NO₃]: the Surv is given as 0/6.

The same test, now with this note: Dose 80 mg/kg ip in water on day one; ILS ≧ 50% indicates activity.
Turning to `N.N.Nc1ccn(C2OC(CO)C(O)C2O)c(=O)n1.O=[N+]([O-])[O-].[Cl-].[Pt+2]` [cis-[Pt(NH₃)₂(1-β-D-arabinofuranosylcytosine)Cl]NO₃], the “%ILS” value is 42%.

Still in this test, the particulars now being: Dose 80 mg/kg ip; survivors per group of 6 mice at twice the MST of controls.
For `N.N.Nc1ccn(C2OC(CO)C(O)C2O)c(=O)n1.O=[N+]([O-])[O-].[Cl-].[Pt+2]` [cis-[Pt(NH₃)₂(1-β-D-arabinofuranosylcytosine)Cl]NO₃], the Surv is given as 2/6.

Still in this test, the particulars now being: Dose 160 mg/kg ip in water on day one; ILS ≧ 50% indicates activity.
In the case of `N.N.Nc1ccn(C2OC(CO)C(O)C2O)c(=O)n1.O=[N+]([O-])[O-].[Cl-].[Pt+2]` [cis-[Pt(NH₃)₂(1-β-D-arabinofuranosylcytosine)Cl]NO₃], the “%ILS” value came to 51%.

The test is the same for the next values; noted with them: Dose 160 mg/kg ip; survivors per group of 6 mice at twice the MST of controls.
Regarding `N.N.Nc1ccn(C2OC(CO)C(O)C2O)c(=O)n1.O=[N+]([O-])[O-].[Cl-].[Pt+2]` [cis-[Pt(NH₃)₂(1-β-D-arabinofuranosylcytosine)Cl]NO₃], the Surv is listed as 1/6.

The same test, now with this note: Dose 320 mg/kg ip in water on day one; ILS ≧ 50% indicates activity.
`N.N.Nc1ccn(C2OC(CO)C(O)C2O)c(=O)n1.O=[N+]([O-])[O-].[Cl-].[Pt+2]` [cis-[Pt(NH₃)₂(1-β-D-arabinofuranosylcytosine)Cl]NO₃]: the “%ILS” value is listed as 45%.

Staying with this test, now noted: Dose 320 mg/kg ip; survivors per group of 6 mice at twice the MST of controls.
Regarding `N.N.Nc1ccn(C2OC(CO)C(O)C2O)c(=O)n1.O=[N+]([O-])[O-].[Cl-].[Pt+2]` [cis-[Pt(NH₃)₂(1-β-D-arabinofuranosylcytosine)Cl]NO₃], the Surv is given as 2/6.
